# Experimental data as given in US7919471B2, “Method of modulating cell survival and reagents useful for same” (The University of Queensland, priority 1998, dated 2011).
# Where no end group is shown, it is not given here.
# Columns and labels:
# neurons = test: Neural death after growth factor withdrawal with Bcl-2 over-expression; assay type: cell-based, mouse
# Excerpt: Thus, at the same expression levels in the same neural population, Bcl-2 was able to prevent or enhance neural cell death depending on the nature of the death signal.
# p75^NTR-mediated death = test: Modulation of p75NTR-induced killing of microinjected DRG neurons by co-expressed proteins, antisense or caspase inhibitors; assay type: cell-based, mouse; settings: for p75^NTR-mediated (induced) neural death: neurons over-expressing p75^NTR, in LIF, agent present or co-expressed
# Excerpt: The inventors hypothesised that the free cytoplasmic expressed 35 amino acid domain might be able to interfere with death signalling from full length p75^NTR proteins by a dominant-negative mechanism, and attempted to inhibit the death by co-expressing the proteins. Given the results presented below regarding the ability of overexpression of Bcl-2 to enhance p75^NTR killing, this paradigm was used to test the ability of the c35 protein to inhibit death signalling.
# As the inventors had shown that the death of dorsal root ganglia (DRG) sensory neurons in vitro and in vivo, was, at least in part, mediated by p75^NTR, p75^NTR was over-expressed in these cells by microinjecting rat p75^NTR cDNA expressing plasmid into the nucleus of mouse sensory neurons. These were cultured in the presence of the LIF to prevent neural death not linked to p75^NTR mechanisms. […] The injected neurons were observed over a 48 hour period and the viability was assessed. […] This was expected since the cytoplasmic tail contains a sequence with homology to the Fas/TNFR “death domain” [9].
# The Bcl-2 family of proteins is involved in mediating apoptotic signalling pathways, and can homodimerise or heterodimerise with other family members. Bcl-2 and Bcl-xL are well characterised inhibitors of stress-induced apoptosis, JNK activation and neural death due to growth-factor limitation. However, both are poor inhibitors of Fas and TNFR mediated opoptosis. As it had been shown previously that high levels of Bcl-2 or Bcl-xL blocked neural cell death in a variety of models, the inventors examined whether over-expression of these proteins could block the death induced by p75^NTR.
# The inventors tested, therefore, whether high endogenous Bcl-2 levels might be necessary for successful p75^NTR-mediated killing in normal neurons by assaying p75^NTR killing in Bcl-2 depleted cells. Endogenous Bcl-2 was down regulated by antisense as previously described.
# To investigate whether the p75^NTR-Bcl-2 death-signalling cascade was dependent on caspase activation, inhibitors of caspases were employed.
# [1] = tested on: dorsal root ganglia (DRG) sensory neurons; test: Microinjection of plasmid expression constructs into DRG neurons cultured in LIF; survival of injected neurons; assay type: cell-based, mouse; settings: microinjected DRG neurons cultured in LIF
# Experimental: In order to investigate how p75^NTR signals neural death, the inventors devised a robust in vitro assay for p75^NTR induced death. Plasmid expression constructs were microinjected into individual neurons in the presence of the growth factor LIF, and the survival of the neurons expressing the different plasmids was determined. A series of plasmid constructs which encode incomplete p75^NTR proteins were made (see FIG. 1) and the ability of each protein to signal death when over expressed was assessed.
# To further investigate the domain required for death signalling the inventors made constructs expressing p75^NTR proteins deleted for the extracellular domain or the extracellular and transmembrane domains. Proteins without extracellular domains retain the signal peptide which is responsible for correctly transporting the protein into the cell membrane. Proteins without transmembrane domains are expressed free in the cytoplasm of the cell and are epitope tagged with a FLAG motif for detection.
# As the inventors had shown that the death of dorsal root ganglia (DRG) sensory neurons in vitro and in vivo, was, at least in part, mediated by p75^NTR, p75^NTR was over-expressed in these cells by microinjecting rat p75^NTR cDNA expressing plasmid into the nucleus of mouse sensory neurons. […] The injected neurons were observed over a 48 hour period and the viability was assessed. […]
# membrane bound c35 = test: Protection by soluble c35 / 29mer against death signalling from membrane-bound c35; assay type: cell-based; settings: for protection against membrane-linked, expressed c35: FIG. 7, microinjection of sptc35, peptide 30 minutes later
# Experimental: FIG. 7 is a graphical representation showing protection of membrane-bound killing-domain by a soluble 35 amino acid peptide and a soluble 29 amino acid peptide. The cells were subjected to microinjection of sptc35 or GFP followed 30 minutes later by either peptide c35 or the 29mer peptide.
# cells = test: Cell death mediated by palmitoylated (membrane-linked) peptides; assay type: cell-based; settings: FIG. 8
# Experimental: FIG. 8 is a graphical representation showing that peptide 29 which has a palmitoyl group at the membrane (amino) end and which facilitates association with the membrane mediates to cell death. […] F, Fluoro tagged; pen, penetratin.
# Cells were treated with 2 μM peptide for 1-2 hours then washed. pen, penetratin, F29, 29 mer; Palm, palmitoylation. • ? pen F29 • ? pen F29 Palm • ? pen gp130 Palm • ? pen
# The palmitoylation links the peptide to the plasma membrane. This membrane-linked 29mer leads to cell death whereas its soluble form protects cells against p75^NTR-mediated death signalling.
# Cells were washed with peptide (2 μM) for approximately 110 minutes and the cells were then washed. Controls included penetratin-fused 29 mer, palmitoylated penetratin-fused 29 mer palmitoylated penetratin-fused gp130 and penetratin alone.
# Schwann cells = test: Protection of Schwann cells against NGF-induced death; assay type: cell-based; settings: expressed from a genetic construct
substance,measurement,setting,value
Bcl-2: over-expressed wildtype Bcl-2 protein,neural death induced by NGF withdrawal,neurons,able to protect against neural death induced by NGF withdrawal
same,p75^NTR-mediated (induced) neural death,p75^NTR-mediated death,induced a significant increase in neural death
same,neural death / survival after expression of the construct alone,[1],had no effect on cell survival
29mer: truncated form of the 35mer; six amino acids deleted from the C-terminal end (SEQ ID NO:12) (KRWNSCKQNKQGANSRPVNQTPPPEGEKL; listed as Rattus norvegicus),"protection against membrane-linked, expressed c35",membrane bound c35,also protected against membrane-bound c35
G145E: Bcl-2 protein with inactivating point mutation G145E in the BH1 domain,p75^NTR-mediated (induced) neural death,p75^NTR-mediated death,enhanced killing effect seen with Bcl-2 coexpression was abrogated
Bcl-2 W188A protein: Bcl-2 protein with inactivating point mutation W188A in the BH2 domain,p75^NTR-mediated (induced) neural death,p75^NTR-mediated death,protected neurons from any p75^NTR-induced death
"soluble c35: 35 amino acid domain of p75NTR juxtaposed to the membrane, in soluble form (SEQ ID NO:8) (KRWNSCKQNKQGANSRPVNQTPPPEGEKLHSDSGI; listed as Rattus norvegicus)",protection from death signalling by membrane bound c35,membrane bound c35; FIG. 6,protects cells from death signalling in a dose-dependent manner
same,"protection against membrane-linked, expressed c35",membrane bound c35,"can also protect against membrane-linked, expressed c35"
same,cell death / protection,cells,tends to protect the cells
"c35 protein: free cytoplasmic 35 amino acid p75NTR domain expressed from a plasmid, not membrane associated, FLAG tagged (KRWNSCKQNKQGANSRPVNQTPPPEGEKLHSDSGI; also: FLAG tagged, end not given here; listed as Rattus norvegicus)",protection against membrane bound c35,membrane bound c35; expressed in soluble form,can also protect cells against membrane bound c35
same,killing induced by co-expression of p75^NTR and Bcl-2,p75^NTR-mediated death; co-expression in DRG neurons (FIG. 5),able to inhibit this killing
same,neural death / survival after expression of the construct alone,[1],ability of the domain to induce death is removed
same,protection of Schwann cells against NGF-induced death,Schwann cells,protected Schwann cells against NGF-induced death
z-VAD [reference compound],p75^NTR-mediated (induced) neural death,p75^NTR-mediated death,significantly reduced
